In US12486246B2, “Replication protein A (RPA)-DNA interaction inhibitors” (THE TRUSTEES OF INDIANA UNIVERSITY, priority 2019, dated 2025):
≈ marks a conversion by molar mass, not a printed value.

What was measured:
H460 NSCLC cells [1] = assay: Cell survival, CCK-8 metabolic assay, single agent; format: cell-based
Procedure: Cell survival was determined by CCK-8 viability assay and/or clonogenic survival assay in 96 well plates or 24 well plates, respectively and combination index (CI) analysis of drug-drug interactions determined by Chou-Talalay analysis as we have previously described. • 1) CCK-8 metabolic assay: Cells were plated (2500 cells/well) in 96-well plate and allowed to grow for at least 18 hours in at 37° C. in the presence of 5% CO2 before treatment with inhibitor for 48 hours. CCK-8 solution (Dojindo) was added to 10% of the total media volume and after 1-4 hours of incubation absorbance at 450 nm was determined using BioTek® Synergy™ H1 hybrid multi-mode microplate reader • 2) Clonogenic survival assay: Cells were plated in a 24 well (20,000 cells/well) plate, incubated for at least 18 hours and then treated with inhibitor. […] Images of the stained colonies were captured with a Fuji LAS-3000 CCD system then counted using OpenCFU software. Viability is determined as a percent of vehicle controls and plotted versus drug concentration. • 3) Assessment of synergy via combination index (CI): In the combination index studies, cells (H460 or SKGT4) were treated with RPA inhibitor and Pt/etoposide/bleomycin/taxol/DDR inhibitor alone as well as the combination of both—the inhibitor and the DNA damaging chemotherapeutic agent/DDR inhibitor. […]

[2] = system: sonicated salmon sperm DNA; assay: Fluorescent intercalator displacement (FID) assay, SYBR-Green; format: binding; details: 25 mM MOPS pH 6.5
Procedure: The analysis of compound interactions with DNA was determined by inhibition of SYBR-Green intercalation into DNA as we have previously described. Briefly, reactions were performed in 25 mM MOPS (pH 6.5) containing sonicated salmon sperm DNA (8.29 ng/μL), SYBR-Green, and the indicated concentrations of RPA inhibitors. Reactions were conducted in black 96-well plates. Doxorubicin, a known noncovalent DNA binding chemotherapeutic, was used as a positive control. Fluorescence was measured using a BioTek® Synergy™ H1 hybrid multi-mode microplate reader with an excitation wavelength of 485 nm, emission wavelength of 528 nm, and a read height of 7 mm. Data were collected using BioTek® Gen5™ reader software. Reactions were incubated a maximum of 5 min before measurements were collected.
In order to probe the potential role of DNA intercalation as a mechanism for RPA inhibition, compounds 19, 23, 26, 27, 43 and 45 were analyzed using FID assay along with doxorubicin (Dox) as a positive control. […] In addition, direct binding of 9 derivatives to the target protein was assessed using a differential scan fluorimetry (DSF) assay. This assay assesses the melting profile of a protein at increasing temperatures via fluorescent dye binding. The direct interaction of a small molecule to the target protein can either increase or decrease the melting temperature (Tm) of the target depending on the specific protein and their interactions. […] Heparin sulfate, a known RPA interacting molecule often used in the purification of the protein was used as a control. […] (data not shown). […] (FIG. 1B).

[3] = biological target: T1, RPA DBD-A/B construct (His6-RPA181-422 of RPA70) (Homo sapiens, UniProt P27694); assay: EMSA, binding of RPA DBD-A/B construct to DNA; details: mean ± SD, read-out: RPAA/B IC50
T1 construct: The DBD-A/B construct was expressed as a His6-RPA181-422 fusion protein; His6 (N); made in house; host or cells: E. coli BL21 (DE3)
Procedure: (§1) Full length, heterotrimeric human RPA (fl-RPA) and DBD-A/B constructs were expressed and purified according to previously described protocol. The DBD-A/B construct was expressed as a His6-RPA181-422 fusion protein. E. coli BL21 (DE3) cells in log growth were induced for 3 h with 0.5 mM IPTG at 37° C. The cells were lysed via sonication in buffer containing 20 mM Tris pH 7.5, 500 mM NaCl, 10 mM b-mercaptoethanol, supplemented with 25 μg/mL lysozyme, 1 μg/mL leupeptin, 1 μg/mL pepstatin and 0.5 mM PMSF. The lysate was applied to a 20 mL phosphocellulose column equilibrated in the same buffer and the flow-through material collected, brought to 5 mM Imidazole and loaded onto a 2 ml Ni-NTA column. The column was washed and proteins eluted on with a gradient from 50 mM to 500 mM imidazole. Fractions were assessed by EMSA and SDS-PAGE and DBD-A/B containing fraction were pool, dialyzed against buffer containing 50 mM HEPES pH 7.0, 500 mM NaCl and 1 mM DTT and stored at −80° C.
(§2) EMSAs were carried out using previously described procedure with the following modification. EMSA reactions (20 μL) were performed with 50 nM fl-RPA and 2.5 nM 5′ [^32P]-labeled 34-base DNA in buffer containing 20 mM HEPES (pH 7.8), 1 mM DTT, 0.001% NP-40, 50 mM NaCl. Chemical compounds were suspended in DMSO and DMSO concentration in the reaction mixture was kept constant at 2% or below 5%. RPA was incubated with inhibitor or DMSO control in reaction buffer for 30 min before the addition of DNA. Reactions were incubated for 5 min at room temperature and products separated via 6% native polyacrylamide gel electrophoresis. The bound and unbound fractions were then quantified by phosphor-imager analysis using ImageQuant software (Molecular Dynamics, CA) and IC50 values calculated by non-linear regression using SigmPlot (Sysat). For EMSA reactions with RPA DBD-A/B, 150 nM DBD-A/B was used, and electrophoresis was performed at 4° C. All other conditions were identical to those described for the full-length RPA.
These domains are compact modular domains populated with hydrophobic and basic DNA binding amino acid residues and have great potential to influence binding of the compounds to the RPA70 subunit. RPA DBD-A/B construct was purified via Ni-affinity chromatography. The activity of compounds 23-27 was evaluated on purified DBD-A/B construct using EMSA.

H460 NSCLC cells [4] = assay: Cellular uptake measurement by LC/MS; format: in vitro ADME; details: 20 μM, 4 hours, 37° C.
Procedure: All cells were grown as monolayers at 37° C. with 5% CO2 in media containing 20% fetal bovine serum and 0.1% pen/strep. Cellular uptake was assessed in both H460 NSCLC and SKGT4 esophageal adenocarcinoma cells. Briefly, cells were plated in 35 mm dishes at 1×10^6 cells well and incubated overnight. Compounds were added to the medium at a concentration of 20 μM incubation continued for 4 hours. Media was removed and cells washed 3× with PBS. 1 mL of methanol was added per well and cells agitated overnight at 4° C. The methanol was collected, wells washed with an additional 1 ml of methanol and pooled. The compounds were dried under vacuum, suspended in methanol and quantified by LC/MS.
Cellular uptake of our compounds in H460 NSCLC cells was analyzed (FIG. 3B). Initially, compounds were first solubilized in 100% DMSO then diluted in aqueous buffer of media to achieve the desired concentrations, the final DMSO concentration was 1% or less in all experiments. Cells were treated with a fixed concentration (20 μM) for 4 hours at 37° C. The intracellular drug concentrations were determined following extraction with ice cold MeOH and analysis via LC and LC/MS. […] Similar uptake data was also obtained in the SKGT4 esophageal adenocarcinoma cell line.

[5] = biological target: T2, full length heterotrimeric human RPA (Homo sapiens, UniProt P27694); assay: Electrophoretic mobility shift assay (EMSA), binding of full length human RPA to ssDNA; details: full length human RPA binding to DNA, mean ± SD of minimum triplicate experiments
T2 construct: Full length, heterotrimeric human RPA (fl-RPA) and DBD-A/B constructs were expressed and purified; made in house
Procedure: as §1, §2
Purified full length heterotrimeric human RPA protein was used to screen a series of analogs in an electrophoretic mobility shift assay (EMSA) measuring direct binding to a ss-DNA substrate. Quantification of the EMSA data and additional concentration dependent analysis to measure IC50 values of newly synthesized analogs provided potential insight into the structure-activity relationships (Table 1 and 2). […] Fluorine and trifluoromethyl substituents were included in pyridinyl compounds 28-29.

[6] = Aqueous solubility as a function of pH; format: physicochemical; details: thermodynamic from solid
Procedure: Aqueous solubility was determined by suspending compound in un-buffered water with stirring. Insoluble material was removed by sedimentation or filtration and soluble compound quantified by absorbance spectroscopy and LC/MS. pH dependence was determined by suspending compound in 10 mM citrate buffer at pH 4.0 or 10 mM phosphate […] as described above in the description.
The morpholine ring is commonly introduced into solvent exposed regions as a privileged solubilizing group to improve solubility or pharmacokinetic properties including metabolic stability of a prospective drug scaffold which is exemplified by many FDA approved drugs. Modifications on Ring A had less of an effect than the morpholino modifications at the alkyl carboxylic acid side chain. To determine the effect of pH on solubility, we prepared solution at 1 mM in citrate buffer at pH 4, phosphate buffer at pH 7 and carbonate buffer at pH 9.5.

H460 NSCLC cells [7] = assay: Combination index (Chou-Talalay), CCK-8 assay; format: cell-based; details: CI <1.0 = synergy
Procedure: Cell survival was determined by CCK-8 viability assay and/or clonogenic survival assay in 96 well plates or 24 well plates, respectively and combination index (CI) analysis of drug-drug interactions determined by Chou-Talalay analysis as we have previously described. • 1) CCK-8 metabolic assay: Cells were plated (2500 cells/well) in 96-well plate and allowed to grow for at least 18 hours in at 37° C. in the presence of 5% CO2 before treatment with inhibitor for 48 hours. CCK-8 solution (Dojindo) was added to 10% of the total media volume and after 1-4 hours of incubation absorbance at 450 nm was determined using BioTek® Synergy™ H1 hybrid multi-mode microplate reader • 2) Clonogenic survival assay: Cells were plated in a 24 well (20,000 cells/well) plate, incubated for at least 18 hours and then treated with inhibitor. After 48 hours of treatment, the cells are re-plated in 10 cm dishes (500 cells/dish) and incubated for 8-10 days to allow colony formation. Plates are washed with PBS, fixed with glutaraldehyde and stained with crystal violet. Images of the stained colonies were captured with a Fuji LAS-3000 CCD system then counted using OpenCFU software. Viability is determined as a percent of vehicle controls and plotted versus drug concentration. • 3) Assessment of synergy via combination index (CI): In the combination index studies, cells (H460 or SKGT4) were treated with RPA inhibitor and Pt/etoposide/bleomycin/taxol/DDR inhibitor alone as well as the combination of both—the inhibitor and the DNA damaging chemotherapeutic agent/DDR inhibitor. The range of treatment was dependent on the IC50 of each inhibitor/drug. If the IC50 was X, then the cells were treated at a range of 0.04× to 5× concentration in a CCK-8 metabolic assay. The kill curves from both the single agent treatments as well as the combination treatment were used in a Chou-Talalay based method to determine the combination index (CI) at different fractions of cells affected.^40 A CI>1.0 indicates antagonism between the two agents, while a CI<1.0 indicates synergy.
Inhibiting RPA can act synergistically with DNA damaging therapeutics including cisplatin and etoposide (FIG. 4C). In these studies, we used the Chou-Talalay method, which provides a combination index (CI) that quantifies synergistic activity for each drug combination. […] The synergistic activity of compounds described herein with DNA damaging agents may be explained by RPA's role in the DNA damage response and signaling.

T2 sequence (P27694 whole entry): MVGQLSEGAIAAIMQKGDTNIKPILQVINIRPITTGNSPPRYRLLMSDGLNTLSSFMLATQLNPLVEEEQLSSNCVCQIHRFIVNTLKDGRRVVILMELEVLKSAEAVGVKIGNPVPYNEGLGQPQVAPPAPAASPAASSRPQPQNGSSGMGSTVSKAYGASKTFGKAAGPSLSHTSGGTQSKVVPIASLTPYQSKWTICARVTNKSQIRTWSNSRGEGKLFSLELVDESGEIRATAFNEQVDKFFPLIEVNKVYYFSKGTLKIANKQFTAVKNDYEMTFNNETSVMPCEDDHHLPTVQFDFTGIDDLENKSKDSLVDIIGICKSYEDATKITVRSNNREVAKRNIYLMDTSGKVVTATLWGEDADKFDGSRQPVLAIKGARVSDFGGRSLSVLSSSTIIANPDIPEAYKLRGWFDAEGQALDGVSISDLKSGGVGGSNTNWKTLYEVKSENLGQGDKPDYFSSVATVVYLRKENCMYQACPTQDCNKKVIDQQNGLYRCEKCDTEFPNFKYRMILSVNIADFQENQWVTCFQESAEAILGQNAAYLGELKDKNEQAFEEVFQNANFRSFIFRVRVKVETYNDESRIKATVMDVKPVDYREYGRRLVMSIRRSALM
T2 sequence (P15927 whole entry partner): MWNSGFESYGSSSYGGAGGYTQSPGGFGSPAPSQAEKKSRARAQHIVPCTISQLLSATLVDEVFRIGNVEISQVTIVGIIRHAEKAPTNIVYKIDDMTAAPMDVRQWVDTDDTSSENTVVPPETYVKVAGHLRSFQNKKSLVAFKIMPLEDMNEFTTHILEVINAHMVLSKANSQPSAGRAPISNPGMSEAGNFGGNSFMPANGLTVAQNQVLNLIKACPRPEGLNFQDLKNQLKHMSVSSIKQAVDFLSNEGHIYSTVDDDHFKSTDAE
T2 sequence (P35244 whole entry partner): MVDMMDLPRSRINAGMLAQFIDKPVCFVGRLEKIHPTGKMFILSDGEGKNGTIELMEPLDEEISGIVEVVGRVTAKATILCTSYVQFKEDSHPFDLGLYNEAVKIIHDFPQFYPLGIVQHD
T1 sequence (P27694 181-422): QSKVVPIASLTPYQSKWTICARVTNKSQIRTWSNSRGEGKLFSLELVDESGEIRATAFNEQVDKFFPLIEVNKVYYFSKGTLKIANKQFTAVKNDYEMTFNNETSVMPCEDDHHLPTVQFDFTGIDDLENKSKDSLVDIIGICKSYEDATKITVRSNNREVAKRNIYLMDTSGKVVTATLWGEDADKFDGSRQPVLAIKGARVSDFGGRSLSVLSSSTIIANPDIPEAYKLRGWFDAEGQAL

Structure (SMILES) | cellular anticancer activity compared to compound 9 (H460 NSCLC cells [1]) | DNA binding activity (displacement of SYBR-Green intercalator) [2] | IC50 [3] | cellular uptake (in words) (H460 NSCLC cells [4]) | IC50 [5] | solubility ([6]; aqueous buffer at pH 9.5, pH 9.5, aqueous buffer) | solubility ([6]; aqueous buffer, pH 4, citrate buffer) | solubility ([6]; aqueous buffer, pH 7, phosphate buffer) | synergy (combination index) with DNA damaging therapeutics cisplatin and etoposide (H460 NSCLC cells [7])
CCOc1ccc2cc(C3CC(c4ccc(-c5ccc(Cl)nc5)cc4)=NN3C(=O)CCCC(=O)O)c(Cl)nc2c1 (centres unmarked) [Compound 26, 5-(5-(2-Chloro-7-ethoxyquinolin-3-yl)-3-(4-(6-chloropyridin-3-yl)phenyl)-4,5-dihydro-1H-pyrazol-1-yl)-5-oxopentanoic acid] | increase in cellular anticancer activity | No significant DNA binding activity | 11.7 ± 0.3 µM | increased uptake | 1.61 ± 0.04 µM | – | – | – | –
CCOc1ccc2cc(C3CC(c4ccc(I)cc4)=NN3C(=O)CCCC(=O)O)c(Cl)nc2c1 (centres unmarked) [Compound 9, 5-(5-(2-Chloro-7-ethoxyquinolin-3-yl)-3-(4-iodophenyl)-4,5-dihydro-1H-pyrazol-1-yl)-5-oxopentanoic acid] | – | – | – | relatively poor uptake | 15.3 ± 1.42 µM | 112.5 ± 0.74 µM (≈ 66.6 µg/mL) | 0.76 ± 0.35 µM (≈ 0.45 µg/mL) | 3.31 ± 0.36 µM (≈ 1.96 µg/mL) | showed synergy but not as robust of activity as compound 8
